biological target: E3 ubiquitin ligase CRBN (Homo sapiens, UniProt Q96SW2); assay: CRBN competitive binding assay (HTRF, thalidomide-XL665 displacement); conditions: not given
Experimental: CRBN binding activity test kit (CEREBLON BINDING KITS (PE, 64BD CRBN PEG)).
The detection is based on homogeneous time-resolved fluorescence (HTRF) technology.
This kit uses a europium-labeled GST antibody (GST Eu Cryptate Antibody) as the donor and XL665-labeled thalidomide (Thalidomide-Red reagent) as the receptor. The donor binds to the GST-tagged CRBN protein.
The donor and acceptor were each diluted 50-fold using the buffer (PROTAC binding buffer 1) in the kit. The CRBN protein was diluted 45-fold. The 8 mM compound solution disclosed in the present invention was diluted 10-fold using the diluent (1 X diluent) in the kit, and then the dilutd solution was subjected to 5-fold gradient dilution of the diluent, diluted 7 times sequentially. […] The mixture was incubated at room temperature for 3 hours. The ratio of the acceptor and donor emission signals for each individual well was calculated.
IC50 value was calculated based on compound concentration, Ratio, and coefficient of variation using GraphPad Prism.

SMILES	IC50 [µM]
O=C1CCN(c2cc3c(cc2F)N2CCNC[C@@H]2CCO3)C(=O)N1 [Example B13]	4.45

same assay, conditions: competition with XL665-labeled thalidomide for GST-tagged CRBN protein, 3 hours at room temperature

SMILES	IC50 [µM]
O=C1CCC(c2ccc3c(c2)OC2(CCNCC2)CC3)C(=O)N1 (centres unmarked) [Example A4]	0.55

same assay, conditions: competition with XL665-labeled thalidomide for GST-tagged CRBN protein, 3 hours at room temperature; read-out: IC50

IC50 [µM]	SMILES
25.7	O=c1ccn(-c2ccc3c(c2)OC2(CCNCC2)CC3)c(=O)[nH]1 [Example A1, 1-(spiro[chroman-2,4'-piperidin]-7-yl)pyrimidine-2,4(1H,3H)-dione]
1.53	O=C1CCN(c2ccc3c(c2)OC2(CCNCC2)CC3)C(=O)N1 [Example A2, 1-(spiro[chroman-2,4'-piperidin]-7-yl)dihydropyrimidine-2,4(1H,3H)-dione]
0.59	O=C1CCC2(CC1)CCc1ccc(N3CCC(=O)NC3=O)cc1O2 [Example A3, 1-(4'-oxospiro[chroman-2,1'-cyclohexan]-7-yl)dihydropyrimidine-2,4(1H,3H)-dione]
3.06	O=C1CCN(c2ccc3c(c2)OC2(CC3)CNC2)C(=O)N1 [Example A5, 1-(spiro[azetidine-3,2'-chroman]-7'-yl)dihydropyrimidine-2,4(1H,3H)-dione]
7.47	O=C1CCN(c2ccc3c(c2)CCC2(CCNCC2)O3)C(=O)N1 [Example A6, 1-(spiro[chromate-2,4'-piperidin]-6-yl)dihydropyrimidine-2,4(1H,3H)-dione]
12.7	O=C1CCN(c2ccc3c(c2)OCC2(CCNCC2)C3)C(=O)N1 [Example A7, 1-(spiro[benzopyran-3,4'-piperidin]-7-yl)dihydropyrimidine-2,4(1H,3H)-dione]
9.5	O=C1CCN(c2ccc3c(c2)CC2(CCNCC2)CO3)C(=O)N1 [Example A8, 1-(spiro[benzopyran-3,4'-piperidin]-6-yl)dihydropyrimidine-2,4(1H,3H)-dione]
11.5	O=C1CCN(c2ccc3c(c2)OCC32CCNCC2)C(=O)N1 [Example A9, 1-(2H-spiro[benzofuran-3,4'-piperidin]-6-yl)dihydropyrimidine-2,4(1H,3H)-dione]
0.91	CN1CC2(CCNCC2)Oc2cc(N3CCC(=O)NC3=O)ccc21 [Example A10, 1-(4-methyl-3,4-dihydrospiro[benzo[b][1,4]oxazine-2,4'-piperidin]-7-yl)dihydropyrimidine-2,4(1H,3H)-dione]
6.15	O=C1CCN(c2ccc3c(c2)OC2(CCNCC2)C3)C(=O)N1 [Example A11, 1-(3H-spiro[benzofuran-2,4'-piperidin]-6-yl)dihydropyrimidine-2,4(1H,3H)-dione]
13.3	O=C1CCN(c2ccc3c(c2)CC2(CCNCC2)O3)C(=O)N1 [Example A12, 1-(3H-spiro[benzofuran-2,4'-piperidin]-5-yl)dihydropyrimidine-2,4(1H,3H)-dione]
28.8	O=C1CCN(c2cccc3c2OCC32CCNCC2)C(=O)N1 [Example A13, 1-(2H-spiro[benzofuran-3,4'-piperidin]-7-yl)dihydropyrimidine-2,4(1H,3H)-dione]
8.36	O=C1CCN(c2ccc3c(c2)CCC2(CNC2)O3)C(=O)N1 [Example A14, 1-(spiro(azetidine-3,2'-benzodihydropyran)-6'-yl)dihydropyrimidine-2,4(1H,3H)-dione]
9.08	O=C1CCN(c2ccc3c(c2)OCC2(CNC2)C3)C(=O)N1 [Example A15]
12.6	O=C1CCN(c2ccc3c(c2)CC2(CNC2)CO3)C(=O)N1 [Example A16, 1-(spiro[azetidine-3,3'-chroman]-6'-yl)dihydropyrimidine-2,4(1H,3H)-dione]
1.73	O=C1CCN(c2ccc3c(c2)OCC32CCNCC2(F)F)C(=O)N1 (centres unmarked) [Example A17, 1-(3',3'-difluoro-2H-spiro[benzofuran-3,4'-piperidin]-6-yl)dihydropyrimidine-2,4(1H,3H)-dione]
5.84	O=C1CCN(c2ccc3c(c2)OCCC2CNCCN32)C(=O)N1 (centres unmarked) [Example B1, 1-(2,3,4,4a,5,6-hexahydro-1H-benzo[b]pyrazino[1,2-d][1,4]oxazepin-9-yl)dihydropyrimidine-2,4(1H,3H)-dione]
6.11	O=C1CCN(c2ccc3c(c2)OCC[C@H]2CNCCN32)C(=O)N1 [Example B2, (S)-1-(2,3,4,4a,5,6-hexahydro-1H-benzo[b]pyrazino[1,2-d][1,4]oxazepin-9-yl)dihydropyrimidine-2,4(1H,3H)-dione]
5.67	O=C1CCN(c2ccc3c(c2)OCC[C@@H]2CNCCN32)C(=O)N1 [Example B3, (R)-1-(2,3,4,4a,5,6-hexahydro-1H-benzo[b]pyrazino[1,2-d][1,4]oxazepin-9-yl)dihydropyrimidine-2,4(1H,3H)-dione]
5.49	O=C1CCN(c2cnc3c(c2)OCC[C@H]2CNCCN32)C(=O)N1 [Example B4, (S)-1-(7,7a,8,9,10,11-hexahydro-6H-pyrazino[1,2-d]pyrido[3,2-b][1,4]oxazepin-3-yl)dihydropyrimidine-2,4(1H,3H)-dione]
10.2	O=C1CCN(c2cnc3c(c2)OCC[C@@H]2CNCCN32)C(=O)N1 [Example B5, (R)-1-(7,7a,8,9,10,11-hexahydro-6H-pyrazino[1,2-d]pyrido[3,2-b][1,4]oxirane-3-yl)dihydropyrimidine-2,4(1H,3H)-dione]
24.3	O=C1CCN(c2ccc3c(c2)NC(=O)CC2CNCCN32)C(=O)N1 (centres unmarked) [Example B6, 1-(6-oxo-1,2,3,4,4a,5,6,7-octahydrobenzo[b]pyrazino[1,2-d][1,4]diazepin-9-yl)dihydropyrimidine-2,4(1H,3H)-dione]
3.81	CN1CC[C@H]2CNCCN2c2ccc(N3CCC(=O)NC3=O)cc21 [Example B7, (S)-1-(7-methyl-1,2,3,4,4a,5,6,7-octahydrobenzo[b]pyrazino[1,2-d][1,4]diazepin-9-yl)dihydropyrimidine-2,4(1H,3H)-dione]
10	O=C1CCN(c2ccc3c(c2)COC[C@H]2CNCCN32)C(=O)N1 [Example B8, (R)-1-(1,2,3,4,4a,5-hexahydro-7H-benzo[e]pyrazino[2,1-c][1,4]oxazepin-9-yl)dihydropyrimidine-2,4(1H,3H)-dione]
8.59	O=C1CCN(c2ccc3c(c2)COC[C@@H]2CNCCN32)C(=O)N1 [Example B9, (S)-1-(1,2,3,4,4a,5-hexahydro-7H-benzo[e]pyrazino[2,1-c][1,4]oxazepin-9-yl)dihydropyrimidine-2,4(1H,3H)-dione]
3.34	O=C1CCN(c2ccc3c(c2)NC(=O)C2CNCCN32)C(=O)N1 (centres unmarked) [Example B10, 1-(5-oxo-2,3,4,4a,5,6-hexahydro-1H-pyrazino[1,2-a]quinoxalin-8-yl)dihydropyrimidine-2,4(1H,3H)-dione]
3.76	CN1CC2CNCCN2c2ccc(N3CCC(=O)NC3=O)cc21 (centres unmarked) [Example B11, 1-(6-methyl-2,3,4,4a,5,6-hexahydro-1H-pyrazino[1,2-a]quinoxalin-8-yl)dihydropyrimidine-2,4(1H,3H)-dione]
2.26	COc1cc2c(cc1N1CCC(=O)NC1=O)OCC[C@H]1CN(C(C)=O)CCN21 [Example B12]
5.4	COc1cc2c(cc1N1CCC(=O)NC1=O)OCC[C@H]1CNCCN21 [Example B14, (S)-1-(10-methoxy-2,3,4,4a,5,6-hexahydro-1H-benzo[b]pyrazino[1,2-d][1,4]oxazepin-9-yl)dihydropyrimidine-2,4(1H,3H)-dione]
3.7	O=C1CCN(c2cc3c(cc2Cl)N2CCNC[C@@H]2CCO3)C(=O)N1 [Example B15, (S)-1-(10-chloro-2,3,4,4a,5,6-hexahydro-1H-benzo[b]pyrazino[1,2-d][1,4]oxazepin-9-yl)dihydropyrimidine-2,4(1H,3H)-dione]

Reference: patent EP4806892A1, “CEREBLON E3 UBIQUITIN LIGASE INHIBITOR” (GAN & LEE PHARMACEUTICALS CO., LTD., priority 2023, dated 2025)
